# Data published in PubChem BioAssay (NCI).
#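 Cells were grown in 96-well plates and exposed to each compound for 48 hours at five concentrations; endpoints were interpolated linearly between bracketing concentrations, or set to the highest concentration if not reached. GI50 marks 50% less growth. TGI: concentration producing complete growth inhibition.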
# Experiments:
# Test in all cases: NCI tumour cell line growth inhibition, 48 h
# ACHN renal = test system: ACHN renal
# OVCAR-3 ovarian = test system: OVCAR-3 ovarian
# RXF 393 renal = test system: RXF 393 renal
# HL-60(TB) leukemia = test system: HL-60(TB) leukemia
# HCT-15 colon = test system: HCT-15 colon
# M14 melanoma = test system: M14 melanoma
# SF-268 CNS = test system: SF-268 CNS
# CCRF-CEM leukemia = test system: CCRF-CEM leukemia
# HCT-116 colon = test system: HCT-116 colon
# MCF7 breast = test system: MCF7 breast
Compound,TGI (ACHN renal) [µM],TGI (OVCAR-3 ovarian) [µM],TGI (RXF 393 renal) [µM],TGI (HL-60(TB) leukemia) [µM],TGI (HCT-15 colon) [µM],TGI (M14 melanoma) [µM],TGI (SF-268 CNS) [µM],TGI (CCRF-CEM leukemia) [µM],TGI (HCT-116 colon) [µM],TGI (MCF7 breast) [µM],GI50 (HCT-116 colon) [nM],GI50 (ACHN renal) [µM],GI50 (OVCAR-3 ovarian) [nM],GI50 (HL-60(TB) leukemia) [nM],GI50 (HCT-15 colon) [µM],GI50 (M14 melanoma) [µM],GI50 (MCF7 breast) [µM],GI50 (SF-268 CNS) [µM],GI50 (RXF 393 renal) [µM],GI50 (CCRF-CEM leukemia) [nM]
C#CCC[C@@H]1O[C@@]1(C)CC/C=C(\C)CC/C=C/C=O,> 100,85.9,> 100,60.8,> 100,48.3,56.3,64.8,,,,,,,,,,,,
O=[As](O)(O)c1ccc(NCc2ccccc2)cc1,> 100,> 100,> 100,,> 100,> 100,> 100,,> 100,> 100,,,,,,,,,,
O=C1c2ccccc2C2(O)Nc3cc(O)ccc3C12O (configuration not stated),> 100,> 100,> 100,> 100,> 100,> 100,> 100,> 100,> 100,,,,,,,,,,,
O=C(NCCCCCCCCNC(=O)c1cnc2ccccc2n1)c1cnc2ccccc2n1,> 100,> 100,> 100,> 100,> 100,> 100,> 100,> 100,> 100,,,,,,,,,,,
CC1=CC2CC(C)=C(CC[C@]3(C)CC[C@H]([C@@H](C)C(=O)O)OO3)C(C)(C)C2CC1 (some centres not stated),2.64,2.99,1.09,0.106,2,2.67,3.24,0.493,0.943,,,,,,,,,,,
CC(C)(C)OC(=O)NCCNC1=CC(=O)c2nc3ccccc3c3ccnc1c23,76.8,67,,> 100,47.9,61.1,77.1,,> 100,24.4,22300,21.5,13800,12200,19.3,18.5,7.42,18.7,,
O=C(/C=C/c1ccc(B(O)O)cc1)/C=C/c1ccc(B(O)O)cc1,13.8,9.27,3.45,,10.7,5.9,12.1,9.58,1.21,3.89,343,3.66,3110,,2.67,2.23,0.415,3.39,1.7,2860
CN(C)c1ccc2c(c1)C(=O)N(OS(=O)(=O)c1ccc([N+](=O)[O-])cc1)C2=O,59.9,> 10,28.1,76,> 100,38.8,80.8,63.1,> 10,,,,,,,,,,,
CC(=O)N1CCN(C2=Nc3ccccc3CO2)C1=S,> 100,> 100,,> 100,> 100,> 100,> 100,> 100,> 100,> 100,89800,> 100,51600,59700,57.8,51.3,38.2,> 100,,32900
COc1cc(CCc2cccnc2)cc(OC)c1OC,> 100,> 100,> 100,> 100,> 100,> 100,> 100,> 100,> 100,,,,,,,,,,,
CCC[CH2][Sn]([CH2]CCC)([O]C(=O)c1c(F)cccc1F)[O]C(=O)c1c(F)cccc1F,2.01,2.36,0.844,> 100,2.28,2.26,1.83,,2.25,,1020,0.763,1140,378,1.09,1.08,,0.565,0.242,
N#Cc1cccc(N2C(=O)c3c(c(-c4ccccc4)c(-c4ccc(Sc5ccc(-c6c(-c7ccccc7)c7c(c(-c8ccccc8)c6-c6ccccc6)C(=O)N(c6cccc(C#N)c6)C7=O)cc5)cc4)c(-c4ccccc4)c3-c3ccccc3)C2=O)c1,> 100,> 100,59.2,> 100,> 100,> 100,> 100,> 100,> 100,,,,,,,,,,,
FC(F)(F)C1(Cl)C(c2ccccc2)=C1c1ccccc1,30.2,31.2,26.6,24.4,27.8,25.6,30.8,12.1,27.4,,,,,,,,,,,
C=C1C(=O)O[C@H]2[C@H]1CC/C(CNC(=O)/C=C/c1ccc(Br)cc1)=C\CC[C@@]1(C)O[C@@H]21,2.08,1.74,1.4,7.28,1.88,2.69,4.27,4.59,1.95,,667,0.848,511,744,0.519,1.11,,1.78,0.26,354
COc1cc(/C(Cl)=C/C=C/C(=O)c2c(C)[n+]([O-])c3ccc(Cl)cc3[n+]2[O-])cc(OC)c1OC,11.6,10,28,,> 50,40.4,14.2,> 50,8.98,> 50,2120,5.15,2390,,7.35,3.68,1.76,5.54,9.15,1620
COc1cccc([C@H]2CC(=O)c3cc4c(cc3N2)OCO4)c1,> 100,> 100,0.713,,> 100,,> 100,> 100,> 100,> 100,60.4,0.0763,41.5,,0.0434,0.0864,0.0568,4.7,,58.6
CC1=CCC[C@@]2(C)C(CC[C@@H]2C(C)/C=C/C(C)C)c2ccc(cc2C(=O)O)C[C@@H](O)CC1 (some centres not stated),18.7,26.8,30,31.2,18.5,34,29.7,20.8,20.7,,,,,,,,,,,
O=P([O-])(O)OP(=O)([O-])O.[NH-][C@H]1CCCC[C@@H]1[NH-].[OH-].[OH-].[Pt+4],42.1,39,36.1,,> 100,> 100,46.8,> 100,> 100,> 100,37100,16.6,21000,,39.9,40.3,32.1,20.9,17.6,> 100000
COc1cc(C(=O)OCCCCCCCCCCC[P+](c2ccccc2)(c2ccccc2)c2ccccc2)ccc1O,2.99,,,0.734,2.97,1.45,,2.52,1.09,,273,1.46,,282,1.38,0.349,,,,434
COC(=O)Cc1cc(OC)c(OC)cc1Br,> 100,> 100,,> 100,,> 100,> 100,> 100,> 100,,,,,,,,,,,

Compound,TGI (ACHN renal) [µM],TGI (OVCAR-3 ovarian) [µM],TGI (RXF 393 renal) [µM],TGI (HL-60(TB) leukemia) [µM],TGI (HCT-15 colon) [µM],TGI (M14 melanoma) [µM],TGI (SF-268 CNS) [µM],TGI (CCRF-CEM leukemia) [µM],TGI (HCT-116 colon) [µM],TGI (MCF7 breast) [µM],GI50 (HCT-116 colon) [nM],GI50 (ACHN renal) [µM],GI50 (OVCAR-3 ovarian) [nM],GI50 (HL-60(TB) leukemia) [nM],GI50 (HCT-15 colon) [µM],GI50 (M14 melanoma) [µM],GI50 (MCF7 breast) [µM],GI50 (SF-268 CNS) [µM],GI50 (RXF 393 renal) [µM],GI50 (CCRF-CEM leukemia) [nM]
O=C(O)CN(c1ccccc1)S(=O)(=O)c1ccc(NC(=O)c2ccccc2)cc1,> 100,,> 100,> 100,> 100,> 100,> 100,> 100,,,,,,,,,,,,
CCCCCCCCCCCOC(=S)NC(C)C,35.9,,42.9,39.1,31.8,60.6,42.7,61.4,31.3,,,,,,,,,,,
N=C(c1ccccc1)N(c1ccccc1)c1ccccc1,,,> 100,> 100,,> 100,> 100,,> 100,,,,,,,,,,,
Cc1ccc(C(=O)O/N=C2/CCCC/C2=C\c2ccccc2)cc1,> 100,> 100,> 100,45.1,> 100,> 100,28.2,> 100,32.7,,,,,,,,,,,
O=C(CC1=Nc2nnc(-c3nnc4n3C(=O)C(CC(=O)c3cccnc3)=N4)n2C1=O)c1cccnc1,> 100,> 100,> 100,> 100,> 100,> 100,> 100,> 100,> 100,,,,,,,,,,,
CCC1(C)NN=c2s/c(=C/c3ccc(OC)cc3)c(=O)n2N1 (configuration not stated),> 100,> 100,> 100,,,> 100,> 100,> 100,> 100,,,,,,,,,,,
CCOc1ccccc1NC(=O)CCC(=O)OC,> 100,> 100,> 100,> 78.8,> 100,> 100,> 100,> 66.7,> 100,,,,,,,,,,,
CN1C(=O)c2c(ccc3c2OCO3)C2C(O)Cc3cc4c(cc3C21)OCO4 (configuration not stated),> 100,> 100,,6.3,24.7,> 100,> 100,9.74,> 100,> 100,,,,,,,,,,
NNC(=S)N/N=C(\CCCC(=O)NCCc1ccccc1)CC(=O)c1ccccc1,> 100,> 100,> 100,> 100,> 100,> 100,> 100,,> 100,,,,,,,,,,,
CC1CC2C3CC(F)C4=CC(=O)C=CC4(C)C3(F)C(O)CC2(C)C1(O)C(=O)COC(=O)C(C)(C)C (configuration not stated),> 100,> 100,76.6,> 100,> 100,> 100,> 100,> 100,> 100,,,,,,,,,,,
O=C(c1ccccc1)c1c(NCC(O)CN2CCCC2)n(Cc2ccccc2)c(=O)n(Cc2ccccc2)c1=O (configuration not stated),54.7,36.2,53.3,,32.2,33.9,40.8,63.6,28.2,> 100,15000,22.3,18400,,17,17.5,42.5,19.6,21.6,24300
O=C(O)c1ccccc1Cc1ccco1,> 100,> 100,> 100,,> 100,> 100,> 100,,> 100,,,,,,,,,,,
O=C1OC(=O)c2c1c(-c1ccccc1)cn2-c1ccc(Cl)cc1,> 100,> 100,,> 100,> 100,> 100,> 100,> 100,> 100,,,,,,,,,,,
NS(=O)(=O)c1ccc(NC(=O)c2ccc(NC3=C(Cl)C(=O)N(Cc4ccccc4)C3=O)cc2)cc1,26.6,7.88,,,69.4,34.6,> 100,,10.3,> 100,2680,13.7,1890,,13.7,12,3.03,7.25,,
COc1ccc(/C(=N/NC(N)=O)C2(O)C(=O)Nc3ccc([N+](=O)[O-])cc32)cc1 (configuration not stated),30.6,33.1,,,46.1,31.1,40.6,32.3,36.1,,,,,,,,,,,
Nc1nc(CCC(=O)Nc2cccc(C(F)(F)F)c2)cc(-c2cccc3ccccc23)n1,> 100,> 100,> 100,> 100,> 100,> 100,> 100,> 100,> 100,,,,,,,,,,,
N#C/C(=C\c1ccccc1O)C(N)=O,> 100,> 100,87.5,43.3,> 100,> 100,> 100,83.1,> 100,,,,,,,,,,,
CCOc1ccc(NC(=O)CC2SC(=Nc3ccc(Cl)cc3)NC2=O)cc1 (configuration not stated),> 100,> 100,> 100,75.4,> 100,> 100,> 100,43.5,,,,,,,,,,,,
CC[P+](C)(Cc1ccccc1)c1ccccc1 (configuration not stated),> 100,> 100,> 100,> 100,> 100,> 100,,> 100,> 100,,,,,,,,,,,
c1ccc(SC2(Sc3ccccc3)CCCC2)cc1,> 100,> 100,> 100,> 100,> 100,> 100,> 100,> 100,> 100,,,,,,,,,,,
